Measured values: the supplement of paper PMC7017272
± gives the standard deviation of the averaged measurements.

How the values were obtained:
[1] = test system: UT-SCC-24A; test: drug sensitivity score (DSS); higher = more sensitive; details: treatment time: 3 days
Procedure: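 HNSCC cell lines (500 cells/well, 384-well) were cultured on plastic, on top of (2D) or embedded (3D) in Matrigel or human leiomyoma matrix Myogel (500 ug/mL; Myogel 3D mixed with rat collagen I). Cells were treated for 3 days with 5 ten-fold concentrations of each drug, and viability was read by CellTiter-Glo. Suffixes _1/_2/_3 on drug names are replicates.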

[2] = test system: UT-SCC-106A; test: maximal % inhibition of viability relative to DMSO; higher = stronger effect; details: treatment time: 3 days
Procedure: (§1)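 HNSCC cell lines (500 cells/well, 384-well) were cultured on plastic, on top of (2D) or embedded (3D) in Matrigel or human leiomyoma matrix Myogel (500 ug/mL; Myogel 3D mixed with rat collagen I). Cells were treated for 3 days with 5 ten-fold concentrations of each drug, and viability was read by CellTiter-Glo. Viability was normalised to DMSO and benzethonium chloride controls and fitted with the FIMM DSRT pipeline to give IC50 (nM), maximal % inhibition and DSS. Suffixes _1/_2/_3 are replicates. Only inhibition-mode (IC50) fits are kept.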

[3] = test system: UT-SCC-14; test: as above; details: treatment time: 3 days
Procedure: as §1

[4] = test system: UT-SCC-24B; test: as above; details: treatment time: 3 days
Procedure: as §1

[5] = test system: UT-SCC-28; test: as above; details: treatment time: 3 days
Procedure: as §1

[6] = test system: UT-SCC-40; test: as above; details: treatment time: 3 days
Procedure: as §1

[7] = test system: UT-SCC-42A; test: as above; details: treatment time: 3 days
Procedure: as §1

[8] = test system: UT-SCC-42B; test: as above; details: treatment time: 3 days
Procedure: as §1

[9] = test system: UT-SCC-44; test: as above; details: treatment time: 3 days
Procedure: as §1

[10] = test system: UT-SCC-73; test: as above; details: treatment time: 3 days
Procedure: as §1

[11] = test system: UT-SCC-81; test: as above; details: treatment time: 3 days
Procedure: as §1

[12] = test system: UT-SCC-8; test: as above; details: treatment time: 3 days
Procedure: as §1

[13] = test system: UT-SCC-106A; test: relative IC50 (midpoint of the fitted curve; maximal inhibition may be below 50%); higher = less potent; details: treatment time: 3 days
Method in brief: (§2)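 Viability was read with CellTiter-Glo 2.0 luminescence and scaled against vehicle (0.1% DMSO) and cell-killing control wells. The assay used HPV-negative HNSCC cell lines at 500 cells/well in 384-well plates, grown on plastic, on Matrigel or Myogel coatings (500 µg/mL), or embedded in Matrigel or Myogel plus rat collagen I, and treated for 3 days at five 10-fold concentrations. IC50, maximal inhibition and drug sensitivity score were derived from percent-inhibition dose–response curves fitted in the FIMM pipeline.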

[14] = test system: UT-SCC-14; test: as above; details: treatment time: 3 days
Method in brief: as §2

[15] = test system: UT-SCC-24B; test: as above; details: treatment time: 3 days
Method in brief: as §2

[16] = test system: UT-SCC-40; test: as above; details: treatment time: 3 days
Method in brief: as §2

[17] = test system: UT-SCC-42B; test: as above; details: treatment time: 3 days
Method in brief: as §2

[18] = test system: UT-SCC-44; test: as above; details: treatment time: 3 days
Method in brief: as §2

[19] = test system: UT-SCC-73; test: as above; details: culture condition: embedded in Matrigel; treatment time: 3 days
Method in brief: as §2

[20] = test system: UT-SCC-8; test: as above; details: treatment time: 3 days
Method in brief: as §2

[21] = culture condition: embedded in Matrigel
[22] = culture condition: embedded in Myogel + collagen I
[23] = culture condition: on top of Matrigel
[24] = culture condition: on top of Myogel
[25] = culture condition: plastic 2D (no matrix)

relative IC50 [13, 21]: 0.00812 µM
relative IC50 [13, 22]: > 0.989 µM
relative IC50 [13, 23]: 0.00776 µM
relative IC50 [13, 25]: 0.0117 µM
relative IC50 [14, 21]: 0.0307 µM
relative IC50 [14, 23]: 0.0396 µM
relative IC50 [14, 24]: 0.0474 µM
relative IC50 [14, 25]: 0.0408 µM
relative IC50 [15, 21]: 0.0312 µM
relative IC50 [15, 23]: 0.023 µM
relative IC50 [15, 25]: 0.0127 µM
relative IC50 [16, 21]: 0.0213 µM
relative IC50 [16, 23]: 0.0242 µM
relative IC50 [16, 25]: 0.0331 µM
relative IC50 [17, 21]: 0.0173 µM
relative IC50 [17, 23]: 0.0177 µM
relative IC50 [17, 25]: 0.0275 µM
relative IC50 [18, 22]: > 0.989 µM
relative IC50 [18, 25]: > 0.989 µM
relative IC50 [19]: 0.032 µM
relative IC50 [20, 21]: 0.0197 µM
relative IC50 [20, 23]: 0.021 µM
relative IC50 [20, 25]: 0.0216 µM
SMILES: CN(C)C/C=C/C(=O)Nc1cc2c(Nc3ccc(F)c(Cl)c3)ncnc2cc1O[C@H]1CCOC1 [Afatinib]
drug sensitivity score [1, 21]: 20.6 ± 3.3 DSS
drug sensitivity score [1, 22]: 8.9 ± 5.3 DSS
drug sensitivity score [1, 23]: 16.6 ± 2.1 DSS
drug sensitivity score [1, 24]: 2.93 ± 2.1 DSS
drug sensitivity score [1, 25]: 15.6 ± 3.1 DSS
maximal % inhibition of viability [2, 21]: 43.3 ± 3.5%
maximal % inhibition of viability [2, 22]: 7.93 ± 2.1%
maximal % inhibition of viability [2, 23]: 56.6 ± 1.3%
maximal % inhibition of viability [2, 24]: 8.37 ± 4.6%
maximal % inhibition of viability [2, 25]: 60.4 ± 4.3%
maximal % inhibition of viability [3, 21]: 74.9 ± 5.2%
maximal % inhibition of viability [3, 22]: 44.3 ± 12%
maximal % inhibition of viability [3, 23]: 74.6 ± 7.7%
maximal % inhibition of viability [3, 24]: 47.3 ± 16%
maximal % inhibition of viability [3, 25]: 71.4 ± 10%
maximal % inhibition of viability [4, 21]: 63.2 ± 3%
maximal % inhibition of viability [4, 22]: 37.8 ± 14%
maximal % inhibition of viability [4, 23]: 56.5 ± 1.6%
maximal % inhibition of viability [4, 24]: 21.4 ± 3.8%
maximal % inhibition of viability [4, 25]: 71.4 ± 3.5%
maximal % inhibition of viability [5, 21]: 3.87 ± 5.3%
maximal % inhibition of viability [5, 22]: 14.7 ± 6.2%
maximal % inhibition of viability [5, 23]: 12 ± 4%
maximal % inhibition of viability [5, 25]: 8.87 ± 2.8%
maximal % inhibition of viability [6, 21]: 80.3 ± 2.6%
maximal % inhibition of viability [6, 22]: 26.2 ± 14%
maximal % inhibition of viability [6, 23]: 74.2 ± 2.8%
maximal % inhibition of viability [6, 24]: 22.6 ± 4.6%
maximal % inhibition of viability [6, 25]: 59.8 ± 7.3%
maximal % inhibition of viability [7, 21]: 51.6 ± 4%
maximal % inhibition of viability [7, 22]: 13.4 ± 9.6%
maximal % inhibition of viability [7, 23]: 54 ± 2.1%
maximal % inhibition of viability [7, 24]: 26.6 ± 1.1%
maximal % inhibition of viability [7, 25]: 50.7 ± 2.2%
maximal % inhibition of viability [8, 21]: 73.7 ± 4.9%
maximal % inhibition of viability [8, 23]: 54.4 ± 3.4%
maximal % inhibition of viability [8, 24]: 9.53 ± 0.45%
maximal % inhibition of viability [8, 25]: 37.8 ± 4.5%
maximal % inhibition of viability [9, 21]: 7.03 ± 6.5%
maximal % inhibition of viability [9, 22]: 1 ± 1.7%
maximal % inhibition of viability [9, 23]: 9.97 ± 9.3%
maximal % inhibition of viability [9, 24]: 9.63 ± 7.3%
maximal % inhibition of viability [9, 25]: 4.6 ± 5.6%
maximal % inhibition of viability [10, 21]: 20.2 ± 7.8%
maximal % inhibition of viability [10, 22]: 25.6 ± 22%
maximal % inhibition of viability [10, 23]: 17.1 ± 3.4%
maximal % inhibition of viability [10, 24]: 11.5 ± 7.3%
maximal % inhibition of viability [10, 25]: 16.7 ± 4.8%
maximal % inhibition of viability [11, 21]: 88.3 ± 2.3%
maximal % inhibition of viability [11, 22]: 33.4 ± 37%
maximal % inhibition of viability [11, 23]: 83.3 ± 2.2%
maximal % inhibition of viability [11, 24]: 23 ± 7.8%
maximal % inhibition of viability [11, 25]: 71.2 ± 5%
maximal % inhibition of viability [12, 21]: 96.67 ± 0.42%
maximal % inhibition of viability [12, 22]: 22.4 ± 19%
maximal % inhibition of viability [12, 23]: 94.3 ± 0.36%
maximal % inhibition of viability [12, 24]: 45.4 ± 12%
maximal % inhibition of viability [12, 25]: 90.7 ± 1.6%
